# Test results published in patent US12089595B2, “Pseudomonas strains and their metabolites to control plant diseases” (T3 Bioscience, Inc., priority 2020, dated 2024).
# “Also recorded” adds a separate entry of the source. Read-outs that look alike come from different tables or passages of the source.
# Columns and labels:
# [1] = test system: E. amylovora; assay: Plate diffusion assay in LB plates; format: cell-based, Erwinia amylovora
# Description: Two assays were used for the antimicrobial test of 0617-T307 cell broth and metabolites. One is plate diffusion assay and the other one is microplate assay. LB plate was used for the plate diffusion assay of the antimicrobial activity of RejuAgro A containing fractions and cell broths against E. amylovora (Table 3).
# [2] = test system: Erwinia amylovora 273; assay: In vitro plate assay of flash fractions; format: cell-based; settings: E. amylovora 273 on 50% LB plate, 2 μL DMSO solution, one day
# Experimental: The generated fractions were applied for the subsequent plate assays. One mL of each fraction was picked up into a 1.5 mL test tube and vacuum dried by an Eppendorf vacuum concentrator. The dried sample was dissolved in 50 μL DMSO, of which 2 μL was used in the plate assay. Briefly, Erwinia amylovora 273 was streaked onto LB plate to grow at 28° C. incubator and single colony obtained after 24 h was inoculated into 5 mL LB media to allow an overnight growth at 28° C. shaker at 200 rpm. The bacteria were diluted 1:100 in sterile water, of which 225 μL was plated onto 50% LB plate (Tryptone, 5.0 g/L; Yeast extract, 2.5 g/L; NaCl, 5.0 g/L, Agar, 15 g/L). After dried in the biosafety cabinet for 10 mins, the DMSO solution of each fraction was then distributed to its pre-labeled section of the petri dish and allowed to dry for another 10 min. Along with the assay, DMSO and Kasugamycin were used as negative and positive controls, respectively. The plates were then incubated at 28° C. incubator and the inhibitory zone was checked one day later.
# The generated fractions were applied for the subsequent plate assays. One mL of each fractions was picked up into a 1.5 mL test tube and vacuum dried by an Eppendorf vacuum concentrator. The dried sample was dissolved in 50 μL DMSO, of which 2 μL was used in the plate assay. […]
# [3] = test system: R. solanacearum Pss; assay: microbe, parasite or virus in culture; format: cell-based; settings: Ralstonia solanacearum, read-out: Diameter of the zone of inhibition
# [4] = test system: X. arboricola pv. Juglandis Xaj219; assay: microbe, parasite or virus in culture; format: cell-based, Xanthomonas arboricola pv. Juglandis; settings: Xanthomonas arboricola, read-out: Diameter of the zone of inhibition
# [5] = test system: X. arboricola pv. Juglandis Xaj417; assay: microbe, parasite or virus in culture; format: cell-based, Xanthomonas arboricola pv. Juglandis; settings: Xanthomonas arboricola, read-out: Diameter of the zone of inhibition
# [6] = Solubility in solvents; format: physicochemical
# Experimental: Preparative HPLC (Prep-HPLC) purification of the fraction 3840 and 5054 lead to the discovery of 15 mg yellow colored compound RejuAgro A (Rt17.5) and 103.3 mg dark-green colored compound RejuAgro B, respectively. […] The structures of the two compounds have been investigated by High resolution mass spectrometry (HR-MS), infrared (IR), Ultraviolet (UV), 1D and 2D Nuclear magnetic resonance (NMR) as well as X-ray crystal structure analysis.
# [7] = test system: R. solanacearum K60; assay: microbe, parasite or virus in culture; format: cell-based; settings: Ralstonia solanacearum, K60, read-out: Diameter of the zone of inhibition
# [8] = test system: Xanthomonas arboricola pv. Juglandis 417; assay: Agar plate spot assay (inhibitory zone); format: cell-based; settings: X. arboricola pv. Juglandis 417, NA
# Description: (§1) The HPLC isolation and purification of the ethyl acetate extracts of acidified cell broth of Pseudomonas sp. 0617-T307 identified two antimicrobial compounds (Rt22.9 and Rt25.0) from flash fraction T5058 and one antimicrobial compound (Rt18.9) from flash fraction T7882. Two μL of DMSO, Rt18.9, Rt22.9 or Rt25.0 were spotted on agar plates respectively grown with different bacterial strains and the inhibitory zone was further examined (Table 8).
# [9] = test system: Pectobacterium atrosepticum 942; assay: Agar plate spot assay (inhibitory zone); format: cell-based; settings: LB
# Description: as §1
# [10] = test system: Pseudomonas syringae pv. lachrymans 1188-1; assay: Agar plate spot assay (inhibitory zone); format: cell-based; settings: P. syringae pv. lachrymans 1188-1, LB
# Description: as §1
# [11] = test system: Pseudomonas syringae pv syringae 7046; assay: Agar plate spot assay (inhibitory zone); format: cell-based; settings: P. syringae pv syringae 7046, LB
# Description: as §1
# [12] = test system: Pseudomonas syringae pv. tomato PT30; assay: Agar plate spot assay (inhibitory zone); format: cell-based; settings: P. syringae pv. tomato PT30, LB
# Description: as §1
# [13] = test system: Xanthomonas arboricola pv. Juglandis 219; assay: Agar plate spot assay (inhibitory zone); format: cell-based; settings: X. arboricola pv. Juglandis 219, NA
# Description: as §1
# [14] = test system: Erwinia amylovora 1189; assay: Agar plate spot assay (inhibitory zone); format: cell-based; settings: LB
# Description: as §1
# [15] = test system: Pectobacterium parmentieri UPP163 936; assay: Agar plate spot assay (inhibitory zone); format: cell-based; settings: LB
# Description: as §1
# [16] = test system: Pseudomonas savastanoi pv. savastanoi 01-26; assay: Agar plate spot assay (inhibitory zone); format: cell-based; settings: P. savastanoi pv. savastanoi 01-26, LB
# Description: as §1
# [17] = test system: Pectobacterium carotovorum subsp. brasiliensis 944; assay: Agar plate spot assay (inhibitory zone); format: cell-based; settings: P. carotovorum subsp. brasiliensis 944, LB
# Description: as §1
# [18] = test system: Ralstonia solanacearum K60; format: cell-based; settings: LB
# [19] = test system: Clavibacter michiganensis subsp. michiganensis Cmm 0317; assay: Agar plate spot assay (inhibitory zone); format: cell-based; settings: LB, 2 to 5 days
# [20] = test system: Xanthomonas axonopodis pv. citri-Miami XC2002-00010; assay: Agar plate spot assay (inhibitory zone); format: cell-based; settings: Xac-Miami XC2002-00010, NA
# [21] = test system: Xanthomonas axonopodis pv. citri N40-SO5; assay: Agar plate spot assay (inhibitory zone); format: cell-based; settings: Xac N40-SO5, NA
# [22] = test system: C. michiganensis subsp. Michiganensis Cmm382; assay: Agar plate diffusion assay; format: cell-based, Clavibacter michiganensis subsp. michiganensis; settings: Clavibacter michiganensis, read-out: Diameter of the zone of inhibition
# [23] = test system: C. michiganensis subsp. Michiganensis Cmm0317; assay: Agar plate diffusion assay; format: cell-based, Clavibacter michiganensis subsp. michiganensis; settings: Clavibacter michiganensis, read-out: Diameter of the zone of inhibition
# [24] = test system: C. michiganensis subsp. Michiganensis Cmm0690; assay: Agar plate diffusion assay; format: cell-based, Clavibacter michiganensis subsp. michiganensis; settings: Clavibacter michiganensis, read-out: Diameter of the zone of inhibition
# [25] = test system: Venturia inaequalis; assay: Antifungal assay on amended PDA plates; format: cell-based; settings: 200-1000 μg/mL in PDA plate; day 14 (figure)
# Experimental: The fungus Venturia inaqualis that causes apple scab was maintained on PDA agar in the dark at room temperature (˜24° C.). A mixture of conidia and mycelia suspension (in 0.01 M PBS) was harvested from PDA (Potato dextrose agar). Ten μL the conidia and mycelia suspension were dropped onto biocontrol bacteria, RejuAgro A, or RejuAgro A amended plates. The control was PDA plates without the addition of the biocontrol bacteria or RejuAgro A or B. […]
compound,measurement,setting,value
"C[C@H]1O[C@H](O[C@H]2[C@H](O)[C@@H](O)[C@@H](O)[C@H](O)[C@@H]2O)[C@@H](N)C[C@@H]1NC(=N)C(=O)O [Kasugamycin, reference compound]",Diameter of the Inhibitory zone,[1]; concentration not given,1.3 cm
same,inhibitory zone / zone of clearance,[2],did show a zone of inhibition
CC1=C(C2=C(C)C(=O)C(=O)NC2=O)C(=O)NC(=O)C1=O [RejuAgro B],zone of inhibition at 2000 µg/mL,[3],4 mm
same,zone of inhibition at 2000 µg/mL,[4],0 mm
same,zone of inhibition at 2000 µg/mL,"[1]; Erwinia amylovora, 2 mg/mL, read-out: Diameter of the Inhibitory zone",0 mm
same,zone of inhibition at 2000 µg/mL,[5],0 mm
same,solubility in dimethyl sulfoxide (DMSO),[6]; DMSO,can be dissolved very well
same,solubility in methanol and chloroform,"[6]; methanol, chloroform",does not dissolve well
same,zone of inhibition at 2000 µg/mL,[7],4 mm
CC(C)CC(=O)NC(Cc1c[nH]c2ccccc12)C(=O)O (centres unmarked) [Rt22.9],Inhibitory zone (Yes/No),[8]; 10 mg/mL,No
same,Inhibitory zone (Yes/No),[9]; 10 mg/mL,No
same,Inhibitory zone (Yes/No),[10]; 10 mg/mL,Yes
same,Inhibitory zone (Yes/No),[11]; 10 mg/mL,Yes
same,Inhibitory zone (Yes/No),[12]; 10 mg/mL,Yes
same,Inhibitory zone (Yes/No),[13]; 10 mg/mL,No
same,Inhibitory zone (Yes/No),[14]; 10 mg/mL,No
same,Inhibitory zone (Yes/No),[15]; 10 mg/mL,No
same,Inhibitory zone (Yes/No),[16]; 10 mg/mL,Yes
same,Inhibitory zone (Yes/No),[17]; 10 mg/mL,No
same,Inhibitory zone (Yes/No),[18]; 10 mg/mL,Yes
same,Inhibitory zone (Yes/No),[19]; 2 μL of 10 mg/mL spotted,Yes
same,Inhibitory zone (Yes/No),[20]; 10 mg/mL,No
same,Inhibitory zone (Yes/No),[21]; 10 mg/mL,No
CCCCCC(=O)NC(Cc1c[nH]c2ccccc12)C(=O)O (centres unmarked) [Rt25.0],Inhibitory zone (Yes/No),[8]; 5 mg/mL,No
same,Inhibitory zone (Yes/No),[9]; 5 mg/mL,No
same,Inhibitory zone (Yes/No),[10]; 5 mg/mL,Yes
same,Inhibitory zone (Yes/No),[11]; 5 mg/mL,Yes
same,Inhibitory zone (Yes/No),[12]; 5 mg/mL,Yes
same,Inhibitory zone (Yes/No),[13]; 5 mg/mL,Yes
same,Inhibitory zone (Yes/No),[14]; 5 mg/mL,No
same,Inhibitory zone (Yes/No),[15]; 5 mg/mL,No
same,Inhibitory zone (Yes/No),[16]; 5 mg/mL,Yes
same,Inhibitory zone (Yes/No),[17]; 5 mg/mL,Yes
same,Inhibitory zone (Yes/No),[18]; 5 mg/mL,Yes
same,Inhibitory zone (Yes/No),[19]; 2 μL of 5 mg/mL spotted,Yes
same,Inhibitory zone (Yes/No),[20]; 5 mg/mL,Yes
same,Inhibitory zone (Yes/No),[21]; 5 mg/mL,Yes
CN[C@H](CC(C)C)C(=O)N[C@H]1C(=O)N[C@@H](CC(N)=O)C(=O)N[C@H]2C(=O)N[C@H]3C(=O)N[C@H](C(=O)N[C@H](C(=O)O)c4cc(O)cc(O)c4-c4cc3ccc4O)[C@H](O)c3ccc(c(Cl)c3)Oc3cc2cc(c3O[C@@H]2O[C@H](CO)[C@@H](O)[C@H](O)[C@H]2O[C@H]2C[C@](C)(N)[C@H](O)[C@H](C)O2)Oc2ccc(cc2Cl)[C@H]1O [Vancomycin],zone of inhibition at 5000 µg/mL,[22],30 mm
same,zone of inhibition at 5000 µg/mL,[23],30 mm
same,zone of inhibition at 5000 µg/mL,[24],30 mm
"O=S(=O)([O-])[O-].[Cu+2] [copper sulfate, reference compound]",growth of V. inaequalis on PDA plates,[25],no inhibition; also recorded: can grow
